In US11130769B2 (Prelude Therapeutics Incorporated, priority 2018, dated 2021):
Like-named read-outs stand apart in the source and are kept apart here.

How the values were obtained:
H929 cells = experiment: Cell viability assay (H929 10 FBS); type: cell-based; settings: Homo sapiens, NCI-H929, 24 hours, read-out: H929_10FBS IC50
In short: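 H929 cells, 4000/well, in RPMI 1640 with 10% FBS, sodium pyruvate, HEPES and glucose were exposed to compound 24 h at 37 °C. Viability read as luminescence after 30-60 min at RT with CellTiter-Glo or ATPlite 1 Step.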

MCL-1 = MCL-1 (Homo sapiens (Human), UniProt Q07820); experiment: Cell free Mcl-1:Bim affinity assay (fluorescence polarization competition); type: binding; settings: 15 nM MCL-1, 5 nM FITC-Bim, 1 hour at room temperature, read-out: BIM_Ki
Chain of MCL-1 (Q07820 whole entry): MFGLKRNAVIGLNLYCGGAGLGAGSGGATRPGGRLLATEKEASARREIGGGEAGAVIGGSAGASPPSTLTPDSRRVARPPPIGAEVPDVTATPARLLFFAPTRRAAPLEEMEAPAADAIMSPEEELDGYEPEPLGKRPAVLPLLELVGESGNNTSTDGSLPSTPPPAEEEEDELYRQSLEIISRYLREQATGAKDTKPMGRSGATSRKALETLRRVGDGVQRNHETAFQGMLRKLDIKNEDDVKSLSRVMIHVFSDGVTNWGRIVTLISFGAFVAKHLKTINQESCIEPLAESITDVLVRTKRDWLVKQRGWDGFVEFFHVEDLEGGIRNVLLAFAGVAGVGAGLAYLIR
In short: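 Compounds competed with FITC-labelled Bim peptide (5 nM) for MCL-1 (15 nM) in HEPES/NaCl buffer with 1% DMSO, 1 h at room temperature. Fluorescence polarization (535 nm emission) gave % inhibition versus DMSO and positive controls; IC50 from 10-point curves, converted to Ki by the Nikolovska-Coleska equation.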

Row | SMILES | IC50 (H929 cells) | Ki (MCL-1; class symbols) | Ki (MCL-1; numeric values)
1 | CN(C)C(=O)OC1CCCOC(C)(C)C(=O)NS(=O)(=O)c2ccc3c(c2)N(C[C@@H]2CC[C@@H]12)C[C@@]1(CCCc2cc(Cl)ccc21)CO3 (stereo partly drawn) [Example 286, [(3R,6R,22S)-6′-Chloro-12,12-dimethyl-13,15,15-trioxo-spiro[11,20-dioxa-15-thia-1,14-diazatetracyclo[14.7.2.03,6.019,24]pentacosa-16,18,24-triene-22,1′-tetralin]-7-yl] N,N-dimethylcarbamate] | > 1000 nM | 1 to 100 nM | –
2 | CN1C/C=C/[C@@H](O)[C@@H]2CC[C@H]2CN2C[C@@]3(CCCc4cc(Cl)ccc43)COc3ccc(cc32)S(=O)(=O)NC(=O)C12CCC2 [Example 138, (3R,6R,7R,8E,22S)-6′-Chloro-7-hydroxy-11-methyl-12,12-(1,3-propylene)-15,15-dioxo-spiro[20-oxa-15-thia-1,11,14-triazatetracyclo[14.7.2.03,6.019,24]pentacosa[8,16(25),17,19(24)]tetraene-22,1′-tetralin]-13-one] | < 1000 nM | 1 to 100 nM | –
3 | CC1(C)OC/C=C/[C@H](OC(=O)N2CCOCC2)[C@@H]2CC[C@H]2CN2C[C@@]3(CCCc4cc(Cl)ccc43)COc3ccc(cc32)S(=O)(=O)NC1=O [Example 172, [(3R,6R,7S,8E,22S)-6′-Chloro-12,12-dimethyl-13,15,15-trioxo-spiro[11,20-dioxa-15-thia-1,14-diazatetracyclo[14.7.2.03,6.019,24]pentacosa-8,16,18,24-tetraene-22,1′-tetralin]-7-yl]morpholine-4-carboxylate] | < 500 nM | < 1 nM | –
4 | CCN1C/C=C/[C@@H](OC)[C@@H]2CC[C@H]2CN2C[C@@]3(CCCc4cc(Cl)ccc43)COc3ccc(cc32)S(=O)(=O)NC(=O)[C@H]1C [Example 132, (3R,6R,7R,8E,12R,22S)-6′-Chloro-7-methoxy-11-ethyl-12-methyl-15,15-dioxo-spiro[20-oxa-15-thia-1,11,14-triazatetracyclo[14.7.2.03,6.019,24]pentacosa-8,16(25),17,19(24)-tetraene-22,1′-tetralin]-13-one] | < 500 nM | 1 to 100 nM | –
5 | CO[C@H]1/C=C/C[C@@H](C)CC(=O)NS(=O)(=O)c2ccc3c(c2)N(C[C@@H]2CC[C@H]21)C[C@@]1(CCCc2cc(Cl)ccc21)CO3 [Example 84, (3R,6R,7S,8E,11R,22S)-6′-Chloro-7-methoxy-11-methyl-15,15-dioxo-spiro[20-oxa-15-thia-1,14-diazatetracyclo[14.7.2.03,6.019,24]pentacosa-8,16(25),17,19(24)-tetraene-22,1′-tetralin]-13-one] | > 1000 nM | 1 to 100 nM | –
6 | CO[C@@H]1/C=C/CCN(C)C(=O)NS(=O)(=O)c2ccc3c(c2)N(C[C@@H]2CC[C@H]21)C[C@@]1(CCCc2cc(Cl)ccc21)CO3 [Example 107, (3R,6R,7R,8E,22S)-6′-Chloro-7-methoxy-12-methyl-15,15-dioxo-spiro[20-oxa-15-thia-1,12,14-triazatetracyclo[14.7.2.03,6.019,24]pentacosa-8,16,18,24-tetraene-22,1′-tetralin]-13-one] | < 1000 nM | 1 to 100 nM | –
7 | COC[C@@H]1OC/C=C/[C@@H](OC)[C@@H]2CC[C@H]2CN2C[C@@]3(CCCc4cc(Cl)ccc43)COc3ccc(cc32)S(=O)(=O)NC1=O [Example 125, (3R,6R,7R,8E,12S,22S)-6′-Chloro-7-methoxy-12-(methoxymethyl)-15,15-dioxo-spiro[11,20-dioxa-15-thia-1,14-diazatetracyclo[14.7.2.03,6.019,24]pentacosa-8,16(25),17,19(24)-tetraene-22,1′-tetralin]-13-one] | > 1000 nM | < 1 nM | –
8 | O=C1Cc2cccc(c2)OC[C@@H]2CC[C@H]2CN2C[C@@]3(CCCc4cc(Cl)ccc43)COc3ccc(cc32)S(=O)(=O)N1 [Example 18, (3R,6R,24S)-6′-Chloro-17,17-dioxo-spiro[8,22-dioxa-17λ^6-thia-1,16-diazapentacyclo[16.7.2.1^9,13.0^3,6.0^21,26]octacosa-9(28),10,12,18(27),19,21(26)-hexaene-24,1′-tetralin]-15-one] | > 1000 nM | – | 1.4 nM
9 | CO[C@@H]1/C=C/CN[C@@H](C(C)C)C(=O)NS(=O)(=O)c2ccc3c(c2)N(C[C@@H]2CC[C@H]21)C[C@@]1(CCCc2cc(Cl)ccc21)CO3 [Example 128, (3R,6R,7R,8E,12S,22S)-6′-Chloro-7-methoxy-12-isopropyl-15,15-dioxo-spiro[20-oxa-15-thia-1,11,14-triazatetracyclo[14.7.2.03,6.019,24]pentacosa-8,16,18,24-tetraene-22,1′-tetralin]-13-one] | > 1000 nM | 1 to 100 nM | –
10 | O=C1Cc2cccc(c2)SC[C@@H]2CCC2CN2CC3(CCCc4cc(Cl)ccc43)COc3ccc(cc32)S(=O)(=O)N1 (stereo partly drawn) [Example 25, (1S,1′R,2′R)-6-Chloro-3,4-dihydro-2H-spiro[naphthalene-1,3′-5,10-dithia-9-aza-1(5,7)-benzo[b][1,4]oxazepina-6(1,3)-benzena-3(1,2)-cyclobutanacyclodecaphan]-8′-one 10′,10′-dioxide] | > 1000 nM | – | 9 nM
11 | COC(=O)N(C)[C@H]1/C=C/COC(C)(C)C(=O)NS(=O)(=O)c2ccc3c(c2)N(C[C@@H]2CC[C@H]21)C[C@@]1(CCCc2cc(Cl)ccc21)CO3 [Example 254, Methyl N-methyl-N-[(3R,6R,7S,8E,22S)-6′-chloro-12,12-dimethyl-13,15,15-trioxo-spiro[11,20-dioxa-15-thia-1,14-diazatetracyclo[14.7.2.03,6.019,24]pentacosa-8,16(25),17,19(24)-tetraene-22,1′-tetralin]-7-yl]carbamate] | > 1000 nM | 1 to 100 nM | –
12 | CN(C)C(=O)O[C@H]1/C=C\COC(C)(C)C(=O)NS(=O)(=O)c2ccc3c(c2)N(C[C@@H]2CC[C@H]21)C[C@@]1(CCCc2cc(Cl)ccc21)CO3 [Example 35, [(3R,6R,7S,8Z,22S)-6′-Chloro-12,12-dimethyl-13,15,15-trioxo-spiro[11,20-dioxa-15-thia-1,14-diazatetracyclo[14.7.2.03,6.019,24]pentacosa-8,16,18,24-tetraene-22,1′-tetralin]-7-yl] N,N-dimethylcarbamate] | > 1000 nM | 1 to 100 nM | –
13 | CCCN1C/C=C/[C@H](OC(=O)N(C)C)[C@@H]2CC[C@H]2CN2C[C@@]3(CCCc4cc(Cl)ccc43)COc3ccc(cc32)S(=O)(=O)NC(=O)C1(C)C [Example 211, [(3R,6R,7S,8E,22S)-6′-Chloro-12,12-dimethyl-13,15,15-trioxo-11-propyl-spiro[20-oxa-15-thia-1,11,14-triazatetracyclo[14.7.2.03,6.019,24]pentacosa-8,16,18,24-tetraene-22,1′-tetralin]-7-yl] N,N-dimethylcarbamate] | < 500 nM | < 1 nM | –
14 | CN(C)C(=O)O[C@H]1/C=C/CN(C)C(C)(C)C(=O)NS(=O)(=O)c2ccc3c(c2)N(C[C@@H]2CC[C@H]21)C[C@@]1(CCCc2cc(Cl)ccc21)CO3 [Example 44, [(3R,6R,7S,8E,22S)-6′-chloro-11,12,12-trimethyl-13,15,15-trioxo-spiro[20-oxa-15-thia-1,11,14-triazatetracyclo[14.7.2.03,6.019,24]pentacosa-8,16,18,24-tetraene-22,1′-tetralin]-7-yl] N,N-dimethylcarbamate] | < 500 nM | < 1 nM | –
15 | CO[C@@H]1/C=C/CO[C@@H](C)C(=O)NS(=O)(=O)c2ccc3c(c2)N(C[C@@H]2CC[C@H]21)C[C@@]1(CCCc2cc(Cl)ccc21)CO3 [Example 114, (3R,6R,7R,8E,12S,22S)-6′-Chloro-7-methoxy-12-methyl-15,15-dioxo-spiro[11,20-dioxa-15-thia-1,14-diazatetracyclo[14.7.2.03,6.019,24]pentacosa-8,16,18,24-tetraene-22,1′-tetralin]-13-one] | < 1000 nM | < 1 nM | –
16 | CCOC1CN(C(=O)O[C@H]2/C=C/CN(C)C3(CCC3)C(=O)NS(=O)(=O)c3ccc4c(c3)N(C[C@@H]3CC[C@H]32)C[C@@]2(CCCc3cc(Cl)ccc32)CO4)C1 [Example 244, [(3R,6R,7S,8E,22S)-6′-Chloro-11-methyl-12,12-(1,3-propylene)-13,15,15-trioxo-spiro[20-oxa-15-thia-1,11,14-triazatetracyclo[14.7.2.03,6.019,24]pentacosa-8,16,18,24-tetraene-22,1′-tetralin]-7-yl] 3-ethoxyazetidine-1-carboxylate] | < 500 nM | < 1 nM | –
17 | CNC1CN(C(=O)O[C@H]2/C=C/COC(C)(C)C(=O)NS(=O)(=O)c3ccc4c(c3)N(C[C@@H]3CC[C@H]32)C[C@@]2(CCCc3cc(Cl)ccc32)CO4)C1 [Example 156, [(3R,6R,7S,8E,22S)-6′-Chloro-12,12-dimethyl-13,15,15-trioxo-spiro[11,20-dioxa-15-thia-1,14-diazatetracyclo[14.7.2.03,6.019,24]pentacosa-8,16,18,24-tetraene-22,1′-tetralin]-7-yl] 3-(methylamino)azetidine-1-carboxylate] | < 500 nM | < 1 nM | –
18 | CO[C@@H]1/C=C/CC[C@@H](C)C(=O)NS(=O)(=O)c2ccc3c(c2)N(C[C@@H]2CC[C@H]21)C[C@@]1(CCCc2cc(Cl)ccc21)CO3 [Example 72, (3R,6R,7R,8E,12R,22S)-6′-Chloro-7-methoxy-12-methyl-15,15-dioxo-spiro[20-oxa-15-thia-1,14-diazatetracyclo[14.7.2.03,6.019,24]pentacosa-8,16(25),17,19(24)-tetraene-22,1′-tetralin]-13-one] | > 1000 nM | 1 to 100 nM | –
